Measurements taken from patent publication EP4385326A1, “BIOPESTICIDE COMPOSITION AND METHOD FOR CONTROLLING AND TREATING BROAD SPECTRUM OF PESTS AND DISEASES IN PLANTS” (Kimitec Biogorup, priority 2022, dated 2024).
Marks after values point to notes of the source that are not given here.

Columns and labels:
[1] = system: Bemisia tabaci; test: Contact mortality (Leaf Disc Method); assay type: in vivo; details: Table 4, application dose 3 cc/l (0.3%), Abbott's corrected
[2] = system: Myzus persicae; test: Contact mortality (Leaf Disc Method); assay type: in vivo; details: Table 4, application dose 3 cc/l (0.3%), Abbott's corrected
[3] = system: Frankliniella occidentalis; test: Contact mortality (Leaf Disc Method); assay type: in vivo; details: Table 4, application dose 3 cc/l (0.3%), Abbott's corrected
[4] = system: Tuta absoluta; test: Contact mortality (Leaf Disc Method); details: Table 3; application dose 3 cc/l (0.3%); Abbott's corrected; 24 h
[5] = system: Spodoptera littoralis; test: Contact mortality (Leaf Disc Method); details: Table 3; application dose 3 cc/l (0.3%); Abbott's corrected; 24 h
Experimental: Which is compared to individual solvent, using different solvents in order to extract active principles from vegetable matrix in the step b) claimed process and a third option that is evaporated the resulting solvent in the extraction process. Vegetable matrix is Carum carvi seed. Three kinds of treatments previously mentioned are: • Treatment A: Individual solvent • Treatment B: Plant extract without solvent. The solvent was removed by vacuum concentration and the composition was prepared using the crude extract in an aqueous solution in 2% Tween^Tm24. • Treatment C: Plant extract with different solvents.
The biopesticidal activity of the different treatments is tested in vitro against two lepidopteran pests: polyphagous Spodoptera littoralis and olyphagous Tuta absoluta. Aside from benzyl alcohol, solvents frequently used to formulate chemical products such as ethanol, isopropanol and water are used in the treatments. Table 3. In vitro trials against chewing lepidopteran pests
The objective of this bioassay is to evaluate the effect of test items on the mortality of adult insects and mites in a short/medium-term (0-24 hours) by topical application. Tests were conducted in plastic net bottles. A total of 10 replicates for each treatment (tests items and negative control) were used in each experiment and temporarily replicated 3 times along the week. (Figure 4)
Numbers of live and dead adult insects and mites were counted at 24 h post-treatment. Adult insects and mites were considered dead if no movement was apparent after probing with the tip of a fine brush under stereoscopic magnifying glass. Mortality percentage was calculated in treatment and control groups. If the mortality in negative control is above 20% the test was discarded.
Means of %M were compared using a one-way analysis of variance (ANOVA, p<0.05) and LSD-test as a post hoc test to verify significant differences between single treatments using Statgraphics Centurion XVII software. When nonnormality in the data was detected, an additional Kruskal-Wallis test was conducted, and Box-and-Whisker Plot (Median Notch) was presented. • Antifeedant effects

[6] = general property stated in the summary; cited from earlier work
[7] = system: Tetranychus urticae; test: Contact mortality (Leaf Disc Method); assay type: in vivo; details: Table 5, application dose 3 cc/l (0.3%), Abbott's corrected

Row | Compound | Contact mortality (%M) Bemisia tabaci (adults) [1] | Contact mortality (%M) Myzus persicae (adults) [2] | Contact mortality (%M) Frankliniella occidentalis (immature) [3] | Contact mortality (%M) Tuta absoluta [4] | Contact mortality (%M) Spodoptera littoralis [5] | solubility in water [6] [g/100 mL] | Contact mortality (%M) Tetranychus urticae (adults) [7] | Contact mortality (%M) Bemisia tabaci (adults) ([1]; 1440 min) | Contact mortality (%M) Myzus persicae (adults) ([2]; 1440 min) | Contact mortality (%M) Frankliniella occidentalis (immature) ([3]; 1440 min) | Contact mortality (%M) Tetranychus urticae (adults) ([7]; 1440 min)
1 | OCc1ccccc1 [Benzyl alcohol (BnOH), Benzyl alcohol] | 49.8 ± 6.2 ^cd % | 19.8 ± 6.2 ^d % | 12.5 ± 7.8 ^d % | 29.6 ± 5.7 ^d % | 17.4 ± 6.2 ^de % | 4 | 33.4 ± 4.1 ^d % |  |  |  | 
2 | CCO [Ethanol (EtOH), Ethanol] | 23.5 ± 8.4 ^d % | 16.7 ± 9.1 ^d % | 0.0 ± 0.0 ^e % | 0.0 ± 0.0 ^e % | 0.0 ± 0.0 ^f % |  | 0.0 ± 0.0 ^e % |  |  |  | 
3 | CC(C)O [Isopropanol (IPN), Isopropanol] | 0.0 ± 0.0 ^e % | 0.0 ± 0.0 ^e % | 0.0 ± 0.0 ^e % | 11.4 ± 7.2 ^e % | 4.2 ± 6.1 ^f % |  | 0.0 ± 0.0 ^e % |  |  |  | 
4 | O [Water] |  |  |  | 0.0 ± 0.0 ^e % | 0.0 ± 0.0 ^f % |  |  | 0.0 ± 0.0 ^e % | 0.0 ± 0.0 ^e % | 0.0 ± 0.0 ^e % | 0.0 ± 0.0 ^e %
